According to US20250352555A1, “METHOD OF INCREASING IMMUNE CELL ACTIVATION AND/OR TREATING CANCER USING DIBENZOXAZEPINONES” (VASCULAR THERAPEUTICS PTY LTD, priority 2022, published 2025):

Key:
[1] = tested on: A375 cells; experiment: Apoptosis, flow cytometry with Annexin V-FITC, A375; type: cell-based, human; conditions: 1 μM, 24 h
Protocol: (§1) Flow cytometry with Annexin V-FITC. Cells were seeded into 6 well plates in normal culture medium containing 10% FBS. After culturing overnight, the cells were incubated in complete medium containing vehicle, BT2 or SCH772984 at 1 μM and left for 24 h. The culture medium was removed and the cells were washed with PBS. Accutase (Stem Cell Technologies, cat. no. 07920) was used to detach the cells. The cells were then washed and centrifuged at 300 g for 5 min and resuspended at 1×10^6 cells/ml in 500 μl of 1× binding buffer (Annexin V-FITC Apoptosis Staining/Detection Kit, Abcam, cat. no. ab14085). The cells were transferred to 12×75 mm tubes and annexin V-FITC/propidium iodide (PI) was added and incubated for 5 min at 22° C. protected from light. Stained cell suspensions were analyzed by flow cytometry using a BD LSRFortessa X20.
(§2) The morphology of A375 and MeWo cells exposed to 1 μM of BT2 or SCH772984 for 24 h was also assessed.

[2] = tested on: total ERK; experiment: Immunohistochemistry of MDA-MB-435 tumors, total ERK; type: in vivo, mouse; conditions: SCID mice, 20 mg/kg i.t.
Excerpt: (§3) Immunohistochemical staining and analyses. Rabbit monoclonal anti-CD3 (cat. no. ab16669; mouse, rat and human reactive), rabbit monoclonal anti-PD-1 (cat. no. ab214421), rabbit monoclonal anti-CD68 (cat. no. ab125212) antibodies were obtained from Abcam, rabbit monoclonal anti-phospho-ERK (Thr^202/Tyr^204) (cat. no. CST4370), rabbit monoclonal total ERK (cat. no. CST4695), antibodies were obtained from Cell Signaling Technology. Rabbit polyclonal anti-PD-L1 (cat. no. PA5-20343) antibody was obtained from ThermoFisher.
(§4) Formalin fixed, paraffin embedded sections were prepared from tumors. Heat-induced epitope retrieval was applied to all deparaffinized sections (4 μm sections on Superfrost slides) with citrate buffer, pH 6.0 for 5 min at 110° C. Sections were blocked with Dual Endogenous Enzyme Block (DAKO, S2003) for 10 min and then with 2% skim milk for 20 min. Slides were incubated with primary antibody for 60 min at room temperature or overnight at 4° C. and then for 10 min with probe of MACH3 Rabbit AP-Polymer Detection solution (Biocare Medical, M3R533 G, H, L). […] Integrated optical density (IOD) or area of positive staining (red chromagen) was assessed using Image-Pro Plus software (Cybernetics, Bethesda, MD, USA). Positive staining was the average of quantitation in 4-8 fields of view under 20× or 40× objectives.

[3] = tested on: MeWo cells; experiment: Migration assay (scratch), MeWo; type: cell-based, human; conditions: 1 μM, 48 h, with greater potency than SCH772984
Protocol: Migration assays. Cells were grown in medium containing 10% FBS in 6-well plates. The following day the cells were scratched with a sterile toothpick, washed with PBS, and incubated in medium containing 10% FBS and vehicle, BT2 or SCH772984 at 1 μM. At 0, 24 h and 48 h the cells were photographed under a 4× objective using an Olympus CKX41 microscope. To assess the effect of BT2 on melanoma cell migration, A375 and MeWo cells were incubated with 1 μM of BT2 or SCH772984, and A375 and MeWo migration into the denuded zone was quantified after 24 or 48 h, respectively.

[4] = tested on: p-ERK; experiment: Immunohistochemistry of MDA-MB-435 tumors, p-ERK; type: in vivo, mouse; conditions: SCID mice, 20 mg/kg i.t.
Excerpt: as §3, §4

[5] = tested on: PD-L1; experiment: Immunohistochemistry of B16F10 tumors (Day 17), PD-L1; type: in vivo, mouse; conditions: B16F10 tumors Day 17, 200 mg/kg i.p., vs vehicle
Excerpt: as §3
as §4, with “objectives. […]” for “objectives.”

[6] = tested on: MeWo cells; experiment: Apoptosis, flow cytometry with Annexin V-FITC, MeWo; type: cell-based, human; conditions: 1 μM, 24 h
Protocol: as §1, §2

[7] = tested on: JUN; experiment: Western blotting for JUN, MDA-MB-435 cells; type: cell-based, human; conditions: MDA-MB-435 cells (BRAF^V600E), 24 h, dose-dependent
Protocol: Western blotting. Cells were treated with compounds and times indicated and total cell lysates were prepared in RIPA buffer. Lysates (10 μg) were resolved by SDS-PAGE and transferred to Immobilon-P polyvinylidene difluoride (PVDF) membranes (Millipore, USA).
Membranes were blocked with 5% skim milk and incubated with rabbit monoclonal anti-c-Jun (Abcam, cat. no. ab32137; mouse, rat and human reactive) antibody, rabbit monoclonal anti-PD-1 (Abcam, cat. no. ab214421) antibody, mouse monoclonal β-actin antibody (Sigma-Aldrich, cat. no. A5316), anti-phospho-SAPK/JNK (Thr^183/Tyr^185) (98F2) (CST, cat. no. 4671) antibody, anti-phospho-p44/42 MAPK (ERK1/2) (Thr^202/Tyr^204) (D13.14.4E) (CST, cat. no. 4370) antibody, anti-phospho-p38 MAPK (Thr^180/Tyr^182) (D3F9) (CST, cat. no. 4511) antibody, anti-SAPK/JNK antibody (CST, cat. no. 9252), anti-p44/42 MAPK (ERK1/2) (137F5) antibody (CST, cat. no. 4695), anti-p38 MAPK antibody (CST, cat. no. 9212), anti-DUSP8 antibody (Abcam, cat. no. ab198175) or anti-c-MAF (BLR045F) antibody (Abcam, cat. no. ab243901). […] Chemiluminescence was detected using the Western Lightning Chemiluminescence system (Thermo Scientific, USA) and ImageQuant™ LAS 4000 biomolecular imager (GE Healthcare Life Sciences, USA). Band intensity in images generated with the LAS 4000 was quantified using NIH Image J. […]

[8] = tested on: inflammation; conditions: arthritic mice (Yeh et al., 2021); cited from earlier work

SMILES: CCOC(=O)Nc1ccc2c(c1)C(=O)N(CC)c1ccccc1O2 [BT2, (10-ethyl-11-oxo-10,11-dihydro-dibenzo[b,f][1,4]oxazepin-2-yl)-carbamic acid ethyl ester]
- apoptosis (Annexin V-FITC+ PI−) [1]: increased apoptosis
- total ERK levels in the tumors (IHC) [2]: no effect on total ERK levels
- migration into the denuded zone [3]: suppressed melanoma migration
- ERK phosphorylation in the tumors (IHC) [4]: suppression of ERK phosphorylation
- PD-L1 levels in tumors (IHC) [5]: increased
- apoptosis (Annexin V-FITC+ PI−) [6]: increased apoptosis
- JUN expression (Western blot) [7]: increased
- anti-inflammatory properties [8]: possesses anti-inflammatory properties
